Molecular target: T1, D-2-HAA halidohydrolase from Pseudomonas putida NCIB 12018 (0.15 M fraction) (Pseudomonas putida, UniProt Q52086)
T1 construct: Activity towards D-2-CPA was found exclusively in the 0.15 M fraction; endogenous in cells; host or cells: Pseudomonas putida NCIB 12018 (cell-free extract from French pressure cell, fractionated on DEAE-Sephacel, 0.15 M KCl fraction)
Test: Inhibition of dehalogenation activity of the isolated D-2-HAA halidohydrolase (0.15 M DEAE-Sephacel fraction)
Format: biochemical
Details: at up to 1 M concentration of the substance; substrate (DL-2-CPA) or reaction product (lactate)
Procedure: Samples of the cell-free extracts were submitted in duplicate to polyacrylamide gel electrophoresis (Hardman et al, Journal of General Microbiology, 1981, Volume 123, pages 117-128). One of each pair of gels, after electrophoresis was incubated in a buffer solution containing 50 mM D-2-CPA and the other of each pair was incubated in a buffer solution containing 50 mM L-2-CPA as described in the aforesaid Hardman et al reference.
A portion (25 ml) of the cell free extract from Pseudomonas putida NCIB 12018 was loaded onto DEAE-Sephacel column (45 mm diameter, 60 cm high) pre-equilibrated with 25 mM Tris/Sulphate buffer at pH 7.5. The column was eluted with portions (200 ml) of this buffer neat and then containing successively 0.15 M, 0.2 M and 0.5 M potassium chloride at a flow rate of 100 ml/hour.
Each of the four fractions was assayed for halidohydrolase activity as described in Step 2 using L-2-CPA and D-2-CPA as substrates.
The halidohydrolase in the 0.15 M fraction has a pH optimum for activity on D-2-CPA at 8.8-9.0. It has good activity in organic (Tris/Sulphate) and inorganic (bicarbonate/carbonate) buffers, and has activity in unbuffered media, e.g. distilled water, with the pH controlled at 8.8-9.0.
The enzymatic activity is not inhibited by up to 1 M DL-2-CPA or by the products of the reaction, i.e. chloride ion and lactate, at up to 1 M concentration.

T1 sequence (Q52086 whole entry): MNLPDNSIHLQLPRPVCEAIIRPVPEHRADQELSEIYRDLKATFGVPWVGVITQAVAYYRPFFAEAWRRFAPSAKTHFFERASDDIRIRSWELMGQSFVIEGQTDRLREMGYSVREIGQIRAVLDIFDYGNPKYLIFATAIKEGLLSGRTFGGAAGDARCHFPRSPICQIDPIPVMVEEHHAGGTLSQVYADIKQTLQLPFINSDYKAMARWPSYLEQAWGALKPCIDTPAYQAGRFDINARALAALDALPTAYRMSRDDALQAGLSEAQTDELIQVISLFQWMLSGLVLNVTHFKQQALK

SMILES	inhibition of the enzymatic activity
CC(Cl)C(=O)O (racemic) [DL-2-CPA, 2-chloropropionic acid]	not inhibited
CC(O)C(=O)O (centres unmarked) [lactate]	not inhibited
